# Assays:
# [1] = system: pathogenic bacteria causing bacterial angular leaf spot in cucumbers; assay: In vitro bactericidal activity, bacterial angular leaf spot in cucumbers; assay type: cell-based, pseudomonas; settings: read-out: inhibitory rate; for inhibition at 1 ppm: dosage 1 ppm; for inhibition at 5 ppm: dosage 5 ppm
# [2] = system: pathogenic bacteria causing bacterial wilt in tobacco; assay: whole plant or invertebrate; assay type: cell-based, ralstonia; settings: read-out: inhibitory rate
# [3] = system: pathogenic bacteria causing black shank in potatoes; assay: In vitro bactericidal activity, black shank in potatoes; assay type: cell-based; settings: read-out: inhibitory rate; for inhibition at 1 ppm: dosage 1 ppm; for inhibition at 5 ppm: dosage 5 ppm
# [4] = system: pathogenic bacteria causing stem rot in sweet potatoes; assay: In vitro bactericidal activity, stem rot in sweet potatoes; assay type: cell-based, dikia; settings: read-out: inhibitory rate; for inhibition at 1 ppm: dosage 1 ppm; for inhibition at 5 ppm: dosage 5 ppm
# [5] = system: pathogenic bacteria causing bacterial blight in rice; assay: whole plant or invertebrate; assay type: cell-based, xanthomonas; settings: read-out: inhibitory rate
# [6] = system: pathogenic bacteria causing fruit blotch in watermelons; assay: In vitro bactericidal activity, fruit blotch in watermelons; assay type: cell-based, acidovorax; settings: read-out: inhibitory rate; for inhibition at 1 ppm: dosage 1 ppm; for inhibition at 5 ppm: dosage 5 ppm
# [7] = system: pathogenic bacteria causing black rot in Chinese cabbages; assay: In vitro bactericidal activity, black rot in Chinese cabbages; assay type: cell-based, xanthomonas; settings: Xanthomonas, read-out: inhibitory rate; for inhibition at 1 ppm: dosage 1 ppm; for inhibition at 5 ppm: dosage 5 ppm
# [8] = system: pathogenic bacteria causing bacterial wilt in cassava; assay: organism not typed; assay type: cell-based; settings: read-out: inhibitory rate
# [9] = system: pathogenic bacteria causing fire blight in pears; assay: In vitro bactericidal activity, fire blight in pears; assay type: cell-based, erwinia; settings: Erwinia, read-out: inhibitory rate; for inhibition at 1 ppm: dosage 1 ppm; for inhibition at 5 ppm: dosage 5 ppm
# black shank in potatoes = assay: Living crops in vivo protective activity, potatoes (root irrigation); settings: Solanum tuberosum, read-out: efficacy against black shank in potatoes; for pest or weed control at 5 ppm: dosage 5 ppm; for pest or weed control at 10 ppm: dosage 10 ppm
# Experimental: Root irrigation was carried out on the potatoes for tests according to the designed concentration of the agents. The dosage for each plant was 200 mL and was kept consistent (also for the control). The black shank bacteria were inoculated on the second day after the application. The results were investigated according to the disease condition.
# [10] = system: indoor potted cucumber seedlings; assay: Effect of improving growth and development of crops; assay type: in vivo; parameters: Rate of growth rate increase (%): concentration or dose not given beside the values; settings: versus blank control; for Rate of chlorophyll content increase (%) / Rate of leaf area increase (%): 14 days after application; for Rate of growth rate increase (%): plant height 14 days after application; for Rate of leaf area increase (%): second leaf
# Method in brief: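 Before treatment, plant height and the second leaf's length and width are recorded. After 14 days these are repeated, chlorophyll is read by meter, and percentage increases in growth rate, leaf area and chlorophyll are computed.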
# cucumber seedlings = assay: Safety for plant growth after application; assay type: in vivo; settings: dosage 200 ppm
# Method in brief: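 Using pot-grown cucumber seedlings indoors, we recorded plant height growth rate together with chlorophyll content and leaf area following compound application.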
# [11] = system: bacterial wilt in tobacco; assay: whole plant or invertebrate; settings: Nicotiana tabacum, read-out: efficacy against bacterial wilt in tobacco
# [12] = system: stem rot in sweet potatoes; assay: whole plant or invertebrate; settings: read-out: efficacy against stem rot in sweet potatoes
# bacterial blight in rice = assay: whole plant or invertebrate; settings: Oryza sativa, read-out: efficacy against bacterial blight in rice
# [13] = system: fruit blotch in watermelons; assay: whole plant or invertebrate; settings: read-out: efficacy against fruit blotch in watermelons
# [14] = system: soft rot in Chinese cabbages; assay: whole plant or invertebrate; settings: 48 h, read-out: efficacy against soft rot in Chinese cabbages
SMILES,inhibition at 1 ppm [1],inhibition at 5 ppm [1],inhibition at 1 ppm [2],inhibition at 5 ppm [2],inhibition at 1 ppm [3],inhibition at 5 ppm [3],inhibition at 1 ppm [4],inhibition at 5 ppm [4],inhibition at 1 ppm [5],inhibition at 5 ppm [5],inhibition at 1 ppm [6],inhibition at 5 ppm [6],inhibition at 1 ppm [7],inhibition at 5 ppm [7],inhibition at 1 ppm [8],inhibition at 5 ppm [8],inhibition at 1 ppm [9],inhibition at 5 ppm [9],pest or weed control at 5 ppm (black shank in potatoes),pest or weed control at 10 ppm (black shank in potatoes),further results
CCN(CC)c1cc2c(cc1F)c(=O)c(C(=O)OCCO)cn2C1CC1 [Compound 419],≥ 90%,≥ 90%,≥ 90%,≥ 90%,≥ 90%,≥ 90%,≥ 90%,≥ 90%,≥ 90%,≥ 90%,≥ 90%,≥ 90%,≥ 90%,≥ 90%,≥ 90%,≥ 90%,≥ 90%,≥ 90%,≥ 90%,≥ 90%,"Rate of chlorophyll content increase (%) [10]: 15%; Rate of growth rate increase (%) [10]: 11%; Rate of leaf area increase (%) [10]: 17%; safety for plant growth (discoloration, necrosis, wilt, malformation) (cucumber seedlings): safe for plant growth; pest or weed control at 5 ppm [11]: ≥ 90%; pest or weed control at 10 ppm [11]: ≥ 90%; pest or weed control at 5 ppm [12]: ≥ 90%; pest or weed control at 10 ppm [12]: ≥ 90%; pest or weed control at 5 ppm (bacterial blight in rice): ≥ 90%; pest or weed control at 10 ppm (bacterial blight in rice): ≥ 90%; pest or weed control at 5 ppm [13]: ≥ 90%; pest or weed control at 10 ppm [13]: ≥ 90%; pest or weed control at 5 ppm [14]: ≥ 90%; pest or weed control at 10 ppm [14]: ≥ 90%"
"COCCOC(=O)c1cn(C2CC2)c2ccc(F)cc2c1=O [Compound 10, 2-methoxyethyl 1-cyclopropyl-6-fluoro-4-oxo-1,4-dihydroquinoline-3-carboxylate]",≥ 90%,≥ 90%,≥ 80%,≥ 90%,≥ 80%,≥ 90%,≥ 90%,≥ 90%,≥ 80%,≥ 90%,≥ 90%,≥ 90%,≥ 90%,≥ 90%,≥ 90%,≥ 90%,≥ 90%,≥ 90%,≥ 80%,≥ 90%,"Rate of chlorophyll content increase (%) [10]: 13%; Rate of growth rate increase (%) [10]: 9%; Rate of leaf area increase (%) [10]: 10%; safety for plant growth (discoloration, necrosis, wilt, malformation) (cucumber seedlings): safe for plant growth; pest or weed control at 5 ppm [11]: ≥ 90%; pest or weed control at 10 ppm [11]: ≥ 90%; pest or weed control at 5 ppm [12]: ≥ 90%; pest or weed control at 10 ppm [12]: ≥ 90%; pest or weed control at 5 ppm (bacterial blight in rice): ≥ 80%; pest or weed control at 10 ppm (bacterial blight in rice): ≥ 90%; pest or weed control at 5 ppm [13]: ≥ 90%; pest or weed control at 10 ppm [13]: ≥ 90%; pest or weed control at 5 ppm [14]: ≥ 80%; pest or weed control at 10 ppm [14]: ≥ 90%"
"COCCOC(=O)c1cn(C2CC2)c2cc(OC3CC3)c(F)cc2c1=O [Compound 294, 2-methoxyethyl 7-cyclopropoxy-1-cyclopropyl-6-fluoro-4-oxo-1,4-dihydroquinoline-3-carboxylate]",≥ 90%,≥ 90%,≥ 90%,≥ 90%,≥ 90%,≥ 90%,≥ 90%,≥ 90%,≥ 90%,≥ 90%,≥ 90%,≥ 90%,≥ 90%,≥ 90%,≥ 90%,≥ 90%,≥ 90%,≥ 90%,≥ 90%,≥ 90%,"Rate of chlorophyll content increase (%) [10]: 10%; Rate of growth rate increase (%) [10]: 9%; Rate of leaf area increase (%) [10]: 12%; safety for plant growth (discoloration, necrosis, wilt, malformation) (cucumber seedlings): safe for plant growth; pest or weed control at 5 ppm [11]: ≥ 90%; pest or weed control at 10 ppm [11]: ≥ 90%; pest or weed control at 5 ppm [12]: ≥ 90%; pest or weed control at 10 ppm [12]: ≥ 90%; pest or weed control at 5 ppm (bacterial blight in rice): ≥ 90%; pest or weed control at 10 ppm (bacterial blight in rice): ≥ 90%; pest or weed control at 5 ppm [13]: ≥ 90%; pest or weed control at 10 ppm [13]: ≥ 90%; pest or weed control at 5 ppm [14]: ≥ 90%; pest or weed control at 10 ppm [14]: ≥ 90%"
COCCOC(=O)c1cn(C2CC2)c2cc(OC3CCCC3)c(F)cc2c1=O [Compound 296],≥ 90%,≥ 90%,≥ 90%,≥ 90%,≥ 90%,≥ 90%,≥ 90%,≥ 90%,≥ 90%,≥ 90%,≥ 90%,≥ 90%,≥ 90%,≥ 90%,≥ 90%,≥ 90%,≥ 90%,≥ 90%,≥ 90%,≥ 90%,"Rate of chlorophyll content increase (%) [10]: 16%; Rate of growth rate increase (%) [10]: 12%; Rate of leaf area increase (%) [10]: 11%; safety for plant growth (discoloration, necrosis, wilt, malformation) (cucumber seedlings): safe for plant growth; pest or weed control at 5 ppm [11]: ≥ 90%; pest or weed control at 10 ppm [11]: ≥ 90%; pest or weed control at 5 ppm [12]: ≥ 90%; pest or weed control at 10 ppm [12]: ≥ 90%; pest or weed control at 5 ppm (bacterial blight in rice): ≥ 90%; pest or weed control at 10 ppm (bacterial blight in rice): ≥ 90%; pest or weed control at 5 ppm [13]: ≥ 90%; pest or weed control at 10 ppm [13]: ≥ 90%; pest or weed control at 5 ppm [14]: ≥ 90%; pest or weed control at 10 ppm [14]: ≥ 90%"
COCCOC(=O)c1cn(C2CC2)c2cc(OC)c(F)cc2c1=O [Compound 281],≥ 90%,≥ 90%,≥ 90%,≥ 90%,≥ 90%,≥ 90%,≥ 90%,≥ 90%,≥ 90%,≥ 90%,≥ 90%,≥ 90%,≥ 90%,≥ 90%,≥ 90%,≥ 90%,≥ 90%,≥ 90%,≥ 90%,≥ 90%,"Rate of chlorophyll content increase (%) [10]: 16%; Rate of growth rate increase (%) [10]: 13%; Rate of leaf area increase (%) [10]: 13%; safety for plant growth (discoloration, necrosis, wilt, malformation) (cucumber seedlings): safe for plant growth; pest or weed control at 5 ppm [11]: ≥ 90%; pest or weed control at 10 ppm [11]: ≥ 90%; pest or weed control at 5 ppm [12]: ≥ 90%; pest or weed control at 10 ppm [12]: ≥ 90%; pest or weed control at 5 ppm (bacterial blight in rice): ≥ 90%; pest or weed control at 10 ppm (bacterial blight in rice): ≥ 90%; pest or weed control at 5 ppm [13]: ≥ 90%; pest or weed control at 10 ppm [13]: ≥ 90%; pest or weed control at 5 ppm [14]: ≥ 90%; pest or weed control at 10 ppm [14]: ≥ 90%"

# Source: patent US20250313533A1, “QUINOLINE CARBOXYLIC ACID ESTER COMPOUND AND PREPARATION METHOD AND USE THEREOF” (priority 2019, published 2025)
